{
  "source": "patent US20090325259A1",
  "about": "“USE OF ADHESION MOLECULES AS BOND STRESS-ENHANCED NANOSCALE BINDING SWITCHES” (priority 2002, published 2009)",
  "key": {"[1]": {"test_system": "E. coli bacteria expressing f18-FimH", "assay": "Parallel plate flow chamber, E. coli on surfaces coated with purified components", "assay_type": "binding", "conditions": "for Effect of shear on accumulation of E. coli on coated surface (in words): 0.12 to 20 dynes/cm^2", "procedure": "Parallel plate flow chamber experiments. Dishes coated with purified components were prepared by incubating 35 mm tissue culture dishes with […] of either 200 mg/ml man-BSA, 200 mg/ml gal-BSA, or a 50,000-fold dilution of polyclonal anti-FimH antiserum in 0.02M bicarbonate buffer for 75 minutes at 37 C, and then washing three times with phosphate-buffered […] with 0.1% BSA (PBS-BSA). The dishes were then inserted into a 2.5 cm×0.25 cm×[…] parallel plate flow chamber (GlycoTech). Bacteria expressing f18-FimH were prepared as described previously (W. E. Thomas, E. Trintchina, M. Forero, V. Vogel, E. V. Sokurenko, Cell 109:913-23 (Jun. 28, 2002)), and brought to 108 cfu/ml in PBS-BSA. 2% alpha-monomannose was added to the PBS-BSA in the studies of surfaces coated with anti-FimH antibodies in order to inhibit any potential mannose-specific interaction between the bacteria and the carbohydrate modifications on the antibodies. This solution of bacteria was flowed through the chamber using a Harvard syringe pump at various shear rates. The bound bacteria were recorded using a Nikon inverted microscope with a 10× phase-contrast objective, a Roper Scientific high-resolution CCD camera, and MetaMorph video acquisition software. The field of view was […] with a resolution of […] per pixel. Even when 400 bacteria bound per field of view, they covered only 1% of the surface area, so that any interactions between bacteria were minimal.\nVideos of bound bacteria were analyzed using MetaMorph imaging software. Total bound bacteria in an image appeared as dark spots in phase-contrast and were counted using the automated cell counting package in MetaMorph. The moving bacteria in an image were identified by subtracting an image from another taken one second earlier so that the bacteria that moved after the first image appear as dark spots that can be counted (FIG. 1, FIG. 3A, FIG. 4). This number was compared to the total number originally counted in the first image to give the fraction of bacteria that moved (FIGS. 1B 3C 3D. The movement may represent detachment or rolling. In FIG. 3B where even detached bacteria were visible due to the short shutter speed and low flow rate, bacteria were classified as detached when they moved faster than the hydrodynamic velocity (the shear rate times the bacterial radius of […]), as stationary if they moved less than one pixel (the size of the larger fluctuations in bacterial position over time that occurred with no net movement), and as rolling for anything in between.\nBacterial adhesion and accumulation is the first step in colonizing, and in many cases infecting target tissues. In order to determine the mechanism which allows bacteria to adhere to target tissues under shear, we studied the kinetics by which E. coli bacteria attach and detach from 1Man-coated surfaces, and how the attachment and detachment behavior depends on shear. Recombinant type I fimbriated E. coli bacteria were used that expressed a variant of the adhesion FimH. […] This FimH variant is found in commensal E. coli strains, including the strain F-18 used in our study. Mannosylated bovine serum albumin (1Man-BSA) was adsorbed to glass to prepare chemically controlled model surfaces that expose only 1Man in contrast to using red blood cells that present additional ligands and receptors that might interacting with E. coli. […] A suspension of E. coli cells was passed through a flow chamber coated with 1Man and the binding of bacteria to the surface under various shear conditions was determined. Using a long (2 second) camera shutter time to blur out the free floating cells, we measured the accumulation of stationary bacteria bound to the surface after a period of five minutes at a range of physiologically relevant shear stresses, from 0.12 to 20 dynes/cm^2 (FIG. 6, triangles). […] This is consistent with previous reports of poor binding of this strain to 1Man in the absence of shear."}, "[2]": {"target": "f-18 fimbriae (FimH) (Escherichia coli, UniProt P08191, N91S/S99N/V48A)", "sequence (P08191 22-300 V48A/N91S/S99N)": "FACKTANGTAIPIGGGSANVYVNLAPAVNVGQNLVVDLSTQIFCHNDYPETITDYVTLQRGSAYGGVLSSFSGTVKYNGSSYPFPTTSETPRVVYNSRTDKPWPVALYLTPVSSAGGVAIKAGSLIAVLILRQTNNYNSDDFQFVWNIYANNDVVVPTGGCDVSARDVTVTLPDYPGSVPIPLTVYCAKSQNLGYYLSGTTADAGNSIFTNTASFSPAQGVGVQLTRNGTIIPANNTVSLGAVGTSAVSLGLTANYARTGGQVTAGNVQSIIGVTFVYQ", "sequence (P08190 24-167 partner)": "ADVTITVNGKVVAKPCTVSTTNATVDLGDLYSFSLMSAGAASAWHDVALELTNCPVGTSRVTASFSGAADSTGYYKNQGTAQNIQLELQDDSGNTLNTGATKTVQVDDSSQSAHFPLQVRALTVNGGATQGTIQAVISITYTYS", "sequence (P08189 21-176 partner)": "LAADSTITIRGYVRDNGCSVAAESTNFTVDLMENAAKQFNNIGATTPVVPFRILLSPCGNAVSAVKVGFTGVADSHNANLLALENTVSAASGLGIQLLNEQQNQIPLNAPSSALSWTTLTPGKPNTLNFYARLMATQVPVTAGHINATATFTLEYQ", "sequence (P04128 24-182 partner)": "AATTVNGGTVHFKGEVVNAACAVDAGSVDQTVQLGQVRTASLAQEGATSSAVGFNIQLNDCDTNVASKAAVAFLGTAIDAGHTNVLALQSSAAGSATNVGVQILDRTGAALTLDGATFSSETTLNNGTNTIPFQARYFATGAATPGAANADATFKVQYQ", "conditions": "6 μm PS beads", "method": "Physisorption of fimbriae to PS plates: 35 mm Coming (#430165) tissue culture dishes were incubated with purified fimbriae diluted 500 fold in 0.02M bicarbonate buffer at 37° C. for 1 hour, and then washed thrice in PBS with 0.1% BSA (PBS-BSA) to prevent nonspecific adhesion by the beads or RBCs to the dish.\nBead coating by 1Man-BSA: Polystyrene microspheres were prepared by rotating a solution of 50 μl of 2.6% beads mixed with 150 μl of 20-200 μg/ml receptor in 0.02M Bicarbonate buffer for one hour at room temperature. Then they were spun twice and resuspended in fresh PBS-BSA. They were finally diluted down to 0.1% and injected in the chamber.\nParallel plate flow chamber experiments: The coated dishes served as the bottom plate in parallel plate flow chamber from Glycotech #31-0001 (Rockville, Md.) using a silicon rubber gasket 20 mm long, 2.5 mm wide and 0.010 in thick. […] The movement of the beads and RBCs was recorded using an inverted Nikon TE 2000 microscope with a long working distance 10× phase contrast objective by means of a Roper Scientific (Duluth, Ga.) Cascade CCD camera.\nData Analysis: Images of the flow chamber were recorded every 3 seconds for 3 minutes at each shear rate. […] The expected free flowing velocity was calculated by multiplying the shear rate by the radius of the particle, assuming that it is barely touching the surface. […]"}, "[3]": {"test_system": "guinea pig red blood cells (RBCs)", "assay": "RBC rosette-formation assay (static agglutination)", "assay_type": "cell-based", "conditions": "for RBC agglutination under static conditions (in words): static rosette-formation assay", "procedure": "(§1) Assays of bacterial adhesion to Man1-BSA and bovine RNAseB immobilized in 96-well plates were carried out as described previously (Sokurenko et al., 1995). Briefly, Man1-BSA and bovine RNAseB were dissolved at 20 μg/ml in 0.02 M bicarbonate buffer, and 100 μl aliquots were incubated in microtiter wells for 1 hr at 37° C. The wells were then washed three times with PBS and quenched with 0.1% BSA in PBS. 3H-thymidine-labeled bacteria were added in 0.1% BSA in PBS and incubated for 40 min at 37° C. without shaking to achieve saturation, and the wells were then washed with PBS. The individual wells were subjected to scintillation counting. The density of bacteria used in all assays was 5×10^7 colony forming units per 100 μl. RBC rosette-formation assay was performed by mixing equal amounts of serially diluted bacterial suspensions (starting from OD540 nm=1.0) and a 1% suspension of RBC in U-bottom microtiter plate wells. On-slide agglutination assays were performed by mixing the suspension of RBC and bacteria on a slide surface followed by rocking at ˜3 s^−1.\n(§2) Two commonly used RBC agglutination assays were performed that utilize different shear conditions. […] If no agglutination occurs, RBCs fall into a pellet in the bottom of the well (FIG. 15A), while agglutination results in a rosette of RBCs crosslinked by bacteria. […] After three minutes without rocking, the aggregate loosened (FIG. 15C)."}, "[4]": {"test_system": "guinea pig red blood cells (RBCs)", "assay": "Parallel plate flow chamber, RBCs on carpet of FimH-expressing E. coli", "assay_type": "cell-based", "conditions": "for Adhesion of RBCs to bacterial carpet under low shear: 0.01 to 0.14 dynes/cm^2", "procedure": "Bacteria-coated dishes were prepared as follows: 35 mm tissue culture dishes were incubated with 20 μg/ml RNAse B in 0.02 M bicarbonate buffer for 1 hr at 37° C. and washed three times in PBS with 0.1% BSA (PBS-BSA). The dishes were then incubated with 200 μl PBS-BSA containing 108 colony-forming units of E. coli for 1 hr at 37° C. and washed three times. […] The dishes were then placed under a Glycotech parallel plate flow chamber with a size B gasket (2.5 cm×0.25 cm×250 μm) and sealed with vacuum. A Harvard model #975 pulse-free syringe pump was used to pump fluid through the chamber. The dishes were equilibrated in the flow chamber with PBS-BSA, and a 0.1% solution of RBC was injected into the chamber, allowed to settle onto the bacterial carpet, and washed with PBS-BSA at a shear stress of about 0.5 dynes/cm^2 until all free cells had been removed from the chamber and upstream tubing. The volumetric flow was then reduced to bring the shear stress down to 0.01-0.02 dynes/cm^2, and the shear stress was stepped up 2-fold, with at least 3 min at each shear stress.\nRBC movement was recorded using phase contrast microscopy with a 20× objective, a CCD camera, and Metamorph video imaging software by Universal Imaging. Videos were recorded at 1 frame every 2 s for a total of 3 min at each shear rate. The position of each RBC was tracked at 6 s intervals in these videos using Metamorph's point tracking plug-in. The average velocity for each cell was calculated from these positions over the 3 min at each shear. These were then averaged for the average velocity of all cells. Some cells detached completely at the low shear stress and moved at the fluid velocity. (A cell moving in flow near a surface has velocity approximately equal to the cell radius, 5 μm, times the shear rate, assuming it is almost touching the surface.) Since these times reflected movement without any bond detachment, these time intervals were removed from the analysis for each cell. We only analyzed cells that were attached and in the field of view at the start of the 3 min time frame. The off-rate of RBCs was calculated from the X, the percent of original RBCs remaining bound at time t, using the formula k=1/t·ln(1/X), and using t=3 min. This assumes that detachment is independent and governed by a single rate constant, and X=e−kt, so that the number of remaining RBCs decays exponentially.\nTo establish whether the differential pattern of RBC agglutination observed in example 1 was due to a distinct ability of shear to enhance adhesion of type I fimbriated bacteria to RBCs, we studied the adhesion of low- and high-Man1 binding variants to RBCs under well-defined shear conditions. Previous studies on the effect of shear on selectin or von Willebrand factor-mediated adhesion of lymphocytes and platelets have used flow chambers (Finger et al., 1996; Marchese et al., 1999). Using a similar approach, we immobilized bacteria expressing either FimH-f18 or FimH-j96 on the surface of a flow chamber coated with bovine 3Man-RNaseB, a model trimannose-containing substrate to which both FimH variants bind with equal affinity (see Table 1A). In brief, RBCs were allowed to bind to the bacterial carpet, and the unbound cells were removed by rinsing under moderate fluid flow shear (0.28 to 0.90 dynes/cm^2). RBCs that remained attached to the bacterial carpet were then subjected to various shear conditions."}, "[5]": {"test_system": "guinea pig red blood cells (RBCs)", "assay": "On-slide RBC agglutination with rocking (dynamic)", "assay_type": "cell-based", "procedure": "as §1, §2"}, "[6]": {"conditions": "switch from 5 to 0.12 dynes/cm^2"}},
  "data": [
    {"molecule": "1Man-BSA: monomannose (1Man) conjugated to Bovine Serum Albumin", "values": [
      {"measurement": "Effect of shear on accumulation of E. coli on coated surface (in words)", "setting": "[1]", "result": "shear enhances the adhesion"},
      {"measurement": "Number of initial attachments in the field of view", "setting": "[1]; 0.5 dynes/cm^2", "result": 102, "unit": "attachments per minute"},
      {"measurement": "Number of initial attachments in the field of view", "setting": "[1]; 3.6 dynes/cm^2", "result": 64, "unit": "attachments per minute"},
      {"measurement": "Increase of E. coli accumulation on coated surface", "setting": "[1]; 5 dynes/cm^2", "result": "100 -fold"},
      {"measurement": "Number of initial attachments in the field of view", "setting": "[1]; 7 dynes/cm^2", "result": 32, "unit": "attachments per minute"},
      {"measurement": "Rolling velocity of surface-bound bacteria", "setting": "[1]; at the peak of the accumulation curve", "result": "about 30 mm per second"},
      {"measurement": "Accumulation of E. coli on coated surface, fold higher binding", "setting": "[1]; peaking at around 3-5 dynes/cm^2, five minutes", "result": "over 100 -fold"},
      {"measurement": "First-order rate constant for the switch from rolling to detached", "setting": "[1]; [6]", "result": 3, "unit": "s⁻¹"},
      {"measurement": "First-order rate constant for the switch from stationary to rolling", "setting": "[1]; [6]", "result": 0.09, "unit": "s⁻¹"},
      {"measurement": "Binding of coated beads to carpet of fimbriae (in words)", "setting": "[2]", "result": "shear-activated binding"},
      {"measurement": "Shear stress at which bead velocity starts to drop", "setting": "[2]", "result": 0.03, "unit": "pN/μm^2"}
    ]},
    {"molecule": "COC1O[C@H](CO)[C@@H](O)[C@H](O)[C@@H]1O", "note": "(stereo partly drawn) [α-methyl-mannoside, reference compound]", "values": [
      {"measurement": "Inhibition of RBC agglutination by α-methyl-mannoside", "setting": "[3]; 50 mM, in all assays (static and dynamic)", "result": "inhibitable"},
      {"measurement": "Inhibition of original attachment of RBCs to bacteria", "setting": "[4]; 50 mM", "result": "could be inhibited"}
    ]},
    {"molecule": "FimH-f18: low-Man1 binding natural FimH variant from intestinal E. coli strain F18, expressed on type I fimbriated recombinant bacteria", "values": [
      {"measurement": "RBC agglutination under static conditions (in words)", "setting": "[3]", "result": "unable to mediate RBC agglutination"},
      {"measurement": "Time after rocking was stopped within which aggregates began to dissipate", "setting": "[5]; after rocking was stopped", "result": "≤ 3", "unit": "min"},
      {"measurement": "RBC aggregate formation in rocking assay with diluted bacteria", "setting": "[5]; bacteria 10-fold diluted", "result": "still formed aggregates"},
      {"measurement": "Off-rate of RBCs from bacterial carpet", "setting": "[4]; 0.14 dynes/cm^2", "result": 0.002, "unit": "min⁻¹"},
      {"measurement": "Off-rate of RBCs from bacterial carpet", "setting": "[4]; 0.2 to 0.4 dynes/cm^2, on average", "result": 0.1, "unit": "min⁻¹"},
      {"measurement": "Off-rate of RBCs from bacterial carpet", "setting": "[4]; 0.7 dynes/cm^2", "result": 0.03, "unit": "min⁻¹"},
      {"measurement": "Adhesion of RBCs to bacterial carpet under low shear", "setting": "[4]", "result": "bind weakly"},
      {"measurement": "Adhesion of RBCs to bacterial carpet under moderate shear", "setting": "[4]; moderate shear, 0.28 to 0.90 dynes/cm^2", "result": "firmly adhered"},
      {"measurement": "Off-rate of RBCs from bacterial carpet", "setting": "[4]; shear stresses above 0.2 dynes/cm^2", "result": "too low to measure"}
    ]},
    {"molecule": "FimH-j96: natural FimH variant of uropathogenic E. coli strain J96; differs from FimH-f18 by A27V, S70N, N78S", "values": [
      {"measurement": "Dilution of bacteria up to which RBC rosettes formed", "setting": "[3]; static conditions", "result": "≤ 8 -fold dilution"},
      {"measurement": "RBC agglutination under static conditions (in words)", "setting": "[3]", "result": "able to agglutinate RBC in static conditions"},
      {"measurement": "Stability of RBC aggregates after rocking was halted", "setting": "[5]; after rocking was halted", "result": "remained stable indefinitely long"},
      {"measurement": "Time for RBCs to form tight clumps in dynamic rocking assay", "setting": "[5]; highest concentration of bacteria (10^9 bacteria/ml)", "result": "35 ± 2", "unit": "s"},
      {"measurement": "Adhesion of RBCs to bacterial carpet under low shear", "setting": "[4]", "result": "adhered firmly"}
    ]},
    {"molecule": "Q32L: single Q32L mutation, effect stated in the FimH-j96 background", "values": [
      {"measurement": "RBC agglutination under static conditions (in words)", "setting": "[3]", "result": "eliminated the ability of the bacteria to agglutinate RBCs under static conditions"}
    ]},
    {"molecule": "S124A: single S124A mutation, effect stated in the FimH-j96 background", "values": [
      {"measurement": "RBC agglutination under static conditions (in words)", "setting": "[3]", "result": "eliminated the ability of the bacteria to agglutinate RBCs under static conditions"}
    ]},
    {"molecule": "galactosylated BSA: negative control galactosylated BSA; galactose is not specifically recognized by FimH", "values": [
      {"measurement": "Effect of shear on accumulation of E. coli on coated surface (in words)", "setting": "[1]", "result": "essentially no bacteria bound at any shear"}
    ]}
  ]
}
